Measurements reported in patent publication US20060142171A1, “Novel alkaline protease” (priority 2003, published 2006).
Starred links: 1 amine or outer side, 2 acyl side, 3 side chain; linkers in the order of their positions; H or OH if unused. Non-standard residues stand in square brackets, D forms with d. Residues, ends and D or L forms follow the SMILES beside them. *: point of attachment. Sta = CC(C)C[C@H](N)[C@@H](O)CC(=O)O; pNA = O=[N+]([O-])c1ccc(N*)cc1; Suc = O=C(CCC(=O)[*:2])[*:1]; Isovaleryl = CC(C)CC(=O)*

Key:
[1] = target: T1, AL protease (Nesterenkonia aethiopica, UniProt D0VWT7); experiment: biochemical; type: biochemical, Nesterenkonia sp. AL
Procedure: (§1) Protease activity was determined using casein as substrate as described earlier [3.12]. The reaction mixture in a total volume of 2 ml was composed of 1% casein, 50 mM glycine-NaOH buffer, pH 10, and appropriately diluted enzyme. After 20 min incubation at 50° C. the reaction was terminated by adding equal volume of 10% trichloroacetic acid (TCA). After separation of the unreacted casein precipitate by centrifugation, 0.5 ml of clear supernatant was mixed with 2.5 ml of 0.5 M Na2CO3 and 0.5 ml of 1 N Folin-Ciocalteau's phenol reagent. After 30 min at 25° C., absorbance was measured at 660 nm against a reagent blank. One unit of protease activity was defined as the amount of enzyme that released 1 μg of amino acid equivalent to tyrosine per min under the standard assay conditions.
(§2) AL protease was also not inhibited by inhibitors of cysteine proteases, aspartate proteases and metal proteases (Table 5). The effect of another serine protease specific inhibitor, 3,4-dichlorocoumarin at a concentration of 100 μM on the protease activity was investigated.

[2] = test system: AL-89 protease; experiment: Effect of protease inhibitors on AL-89 protease activity; type: biochemical, Bacillus pseudofirmus AL-89; conditions: for Remaining activity (%): AL-89 protease, incubated 1 h at 30° C.
Procedure: as §1, §2

[3] = target: T1, AL protease; experiment: Assay with synthetic peptide, pNA, AMC, NNap and ester substrates (kinetic parameters); type: biochemical, Nesterenkonia sp. AL; conditions: for Hydrolysis of synthetic substrate by AL protease: result in words
Procedure: The AL protease activity toward a variety of commercially available synthetic peptide substrates was assayed. The incubation volume was always 1 ml in which 10 μl enzyme solution; 0.76 mg protein/ml was used unless otherwise stated. Initial reaction rates were fitted to the Michaelis-Menten equation, and kinetic parameters, kcat and Km were determined.
Fluorometric assay for Suc-L-Y-AMC, Suc-A-A-F-AMC, Suc-I-I-W-AMC, Suc-A-A-K-AMC, NA-Bz-R-AMC, Suc-L-L-V-Y-AMC, Suc-F-G-L-β-NNap, Suc-L-β-NNap (Sigma) was performed in 50 mM glycine-NaOH buffer, pH 10 at 25° C. The substrate concentration range was from 0.05 to 10 mM except for Suc-L-L-V-Y-AMC (0.1-25 μM). Fluorescence was monitored with a SPEX Fluorolog spectrometer, in a 1×1 cm quartz cuvette placed in a thermostat cuvette holder, using excitation wavelength of 345 nm, emission wavelength 442 nm slit width 5 nm for AMC substrate and excitation wavelength of 340 nm, emission wavelength of 410 and slit width 5 nm for β-NNap substrates. A standard solution of AMC and β-naphthylamine was used to convert the fluorescence values to product concentrations.
Activity with p-nitroanilide substrates was tested at 25° C. in 50 mM Tris-HCl buffer, pH 9. Following substrates were used: Bz-Tyr-pNA (Sigma), BAPNA, Suc-Phe-pNA, Suc-A-A-P-F-pNA, Suc-A-A-P-L-pNA, Suc-G-G-G-pNA, Suc-A-A-A-pNA, Suc-A-A-V-pNA (Bachem Feinchemikalien AG (Bubendorf, Switzerland), and S-benzyl-L-cysteine-4-nitroanilide (Fluka Chemie AG, Buchs, Switzerland). The release of p-nitroanilide (pNA) was measured at 410 nm. Extinction coefficient (E) of pNA was taken to be 8480 M^−1 cm^−1. Initial reaction rates were determined over a concentration range of 0.05-10 mM for most substrates, excluding Suc-A-A-P-L-pNA (0.05-20 mM), and S-benzyl-L-Cysteine-4-nitroanilide (0.05-80 mM).
Hydrolytic activity of the enzyme on the ester substrates, BAEE, BTEE, Bz-F-NE, p-nitrophenyl acetate, p-nitrophenyl butyrate and Suc-F-L-F-SBzl (Sigma) was examined spectrophotometrically at 410 nm (ε410=900 M^−1cm^−1) in 50 mM Tris-HCl buffer, pH 9 at 25° C. and 50° C. respectively. The substrates concentration range between 0.05 to 10 mM. The Initial hydrolysis of BAEE, Suc-F-L-F-SBzl was followed at 253 nm (ε253=1150 M^−1cm^−1) and BTEE at 259 nm (ε259=964 M^−1cm^−1), at which their extinction coefficients were taken in calculation.
Due to the poor aqueous solubility of some of the substrates, their stock solutions were prepared in organic solvents, and further dilution was done with the used buffer. Suc-F-G-L-β-NNap, Suc-L-L-V-Y-AMC, Suc-L-Y-AMC, Suc-A-A-F-AMC, Suc-I-I-W-AMC, Suc-A-A-K-AMC, NA-Bz-R-AMC and Bz-Tyr-pNA, Suc-F-L-F-SBzl and Bz-F-βNE were dissolved in dimethylsulfoxide (DMSO), Suc-Phe-pNA, BTEE and BAPNA in ethanol, Suc-A-A-A-pNA in N,N-dimethylformamide (DMF), and Bz-Cys-NA in acetonitrile.
In these cases the kcat/Km was calculated from velocity measurements at low substrate concentration [S]<<Km, where v=(kcat/Km)[E]0 [S].

[4] = AL protease, inhibitor 10 mM, incubated 1 h at 30° C.
[5] = substrate marked b (footnote not given), pNA and ester substrates, 50 mM Tris-HCl buffer, pH 9
[6] = substrate marked a (footnote not given), AMC substrate, 50 mM glycine-NaOH buffer, pH 10 at 25° C.

T1 sequence (D0VWT7 entry or part of it): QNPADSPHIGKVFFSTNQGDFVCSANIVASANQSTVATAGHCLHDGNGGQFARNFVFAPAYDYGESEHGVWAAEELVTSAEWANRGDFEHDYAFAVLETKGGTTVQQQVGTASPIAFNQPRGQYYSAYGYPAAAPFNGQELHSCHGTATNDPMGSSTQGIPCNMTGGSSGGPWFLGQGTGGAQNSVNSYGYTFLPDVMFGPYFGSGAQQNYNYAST

O=C(O)CN(CCN(CC(=O)O)CC(=O)O)CC(=O)O [EDTA, ethylenediamino tetraacetate]
Remaining activity (%) [1, 4]: 99% | Remaining activity (%) ([2]; inhibitor 10 mM): 98%

O=S(=O)(F)Cc1ccccc1 [PMSF, phenyl-methanesulfonyl fluoride]
Remaining activity (%) ([1]; AL protease, inhibitor 1 mM, incubated 1 h at 30° C.): 100% | Remaining activity (%) [1, 4]: 108% | Inhibition of AL protease activity ([1]; result in words, PMSF up to 10 mM, others at concentrations of Table 5): did not inhibit | Remaining activity (%) ([2]; inhibitor 1 mM): 0% | Remaining activity (%) ([2]; inhibitor 10 mM): 0% | Inhibition of AL-89 protease activity ([2]; result in words, 1 mM): totally inhibited

N-succinyl-Ala-Ala-Pro-Leu-p-nitroanilide (Suc-AAPL-pNA; SMILES CC(C)C[C@H](NC(=O)[C@@H]1CCCN1C(=O)[C@H](C)NC(=O)[C@H](C)NC(=O)CCC(=O)O)C(=O)Nc1ccc([N+](=O)[O-])cc1) [Suc-A-A-P-L-pNA]
Hydrolysis of synthetic substrate by AL protease [3]: remarkable hydrolyzing activity | Km [3, 5]: 9300 µM | kcat [3, 5]: 6646.19 s⁻¹

c1cnc2c(c1)ccc1cccnc12 [1,10-Phenanthroline]
remaining activity at 10000 µM [1, 4]: 113% | Remaining activity (%) ([2]; inhibitor 10 mM): 75%

O=C(O)c1cc[c]([Hg][Cl])cc1 [PCMBA]
Remaining activity (%) ([1]; AL protease, inhibitor 5 mM, incubated 1 h at 30° C.): 99% | Remaining activity (%) ([2]; inhibitor 5 mM): 91%

N-Succinyl-Ala-Ala-Ala-p-nitroanilide [Suc-A-A-A-pNA]
Hydrolysis of synthetic substrate by AL protease [3]: unable to hydrolyze

N-succinyl-Leu-Leu-Val-Tyr-7-amino-4-methyl coumarin [Suc-L-L-V-Y-AMC]
kcat/Km higher than that for Suc-A-A-P-F-pNA and Suc-A-A-P-L-pNA ([3]; AL protease): 2.5-5 fold | Hydrolysis of synthetic substrate by AL protease [3]: remarkable hydrolyzing activity | Km [3, 6]: 15 µM | kcat [3, 6]: 51.68 s⁻¹

N-succinyl-Gly-Gly-Gly-p-nitroanilide (Suc-Gly-Gly-Gly-pNA; SMILES O=C(O)CCC(=O)NCC(=O)NCC(=O)NCC(=O)Nc1ccc([N+](=O)[O-])cc1) [Suc-G-G-G-pNA]
Hydrolysis of synthetic substrate by AL protease [3]: unable to hydrolyze

CC(C)CC(=O)N[C@H](C(=O)N[C@H](C(=O)N[C@@H](CC(C)C)[C@@H](O)CC(=O)N[C@@H](C)C(=O)N[C@@H](CC(C)C)[C@@H](O)CC(=O)O)C(C)C)C(C)C [Pepstatin] (Isovaleryl-VV[Sta]A[Sta]-OH)
remaining activity at 100 µM ([1]; AL protease, inhibitor 0.1 mM, incubated 1 h at 30° C.): 102% | Remaining activity (%) ([2]; inhibitor 0.1 mM): 100%

O=C(O)CCC(=O)N[C@@H](Cc1ccccc1)C(=O)Nc1ccc([N+](=O)[O-])cc1 [Suc-Phe-pNA, N-succinyl-phenylalanine-p-nitroanilide]
Hydrolysis of synthetic substrate by AL protease [3]: did not show detectable activity

N-succinyl-Ala-Ala-Val-p-nitroanilide (Suc-Ala-Ala-Val-pNA; SMILES CC(C)[C@H](NC(=O)[C@H](C)NC(=O)[C@H](C)NC(=O)CCC(=O)O)C(=O)Nc1ccc([N+](=O)[O-])cc1) [Suc-A-A-V-pNA]
Hydrolysis of synthetic substrate by AL protease [3]: unable to hydrolyze

N-succinyl-Ala-Ala-Pro-Phe-p-nitroanilide (Suc-AAPF-pNA) [Suc-A-A-P-F-pNA]
Hydrolysis of synthetic substrate by AL protease [3]: remarkable hydrolyzing activity | Km [3, 5]: 2970 µM | kcat [3, 5]: 4391.46 s⁻¹

CC(=O)Oc1ccc([N+](=O)[O-])cc1 [p-nitrophenyl acetate]
Hydrolysis of synthetic substrate by AL protease [3]: unable to cleave

N=C(N)NCCCC(NC(=O)c1ccccc1)C(=O)Nc1ccc([N+](=O)[O-])cc1 (racemic) [BAPNA, Nα-benzoyl-D,L-arginine-p-nitroanilide]
Hydrolysis of synthetic substrate by AL protease [3]: did not show detectable activity
